In patent US8802597B2, “Herbicidal pyrimidines” (E I du Pont de Nemours and Company, priority 2003, dated 2014):

What was measured:
Assay type in all cases: in vivo
[1] = system: rice flatsedge (Cyperus iria); assay: Test E flooded paddy water application; conditions: Flood, 21 days, scale 0 to 100 (0 no effect, 100 complete control)
Procedure, shortened: (§1)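 Weeds sown in sterilized Tama silt loam (2.6% organic matter), greenhouse 29.5/26.7° C, 16-h photoperiod; at 2.0–2.5-leaf stage pots flooded to 3 cm and compound added to paddy water. Visual rating vs untreated controls after 21 days, 0 (no effect) to 100 (complete control).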

[2] = system: purple redstem (Ammannia coccinea); assay: Test E flooded paddy water application; conditions: Flood, 21 days, scale 0 to 100 (0 no effect, 100 complete control)
Procedure, shortened: as §1

[3] = system: windgrass (Apera spica-venti); assay: Test C postemergence; conditions: for Windgrass plant response rating: scale 0 to 100 (0 no effect, 100 complete control)
Procedure, shortened: (§2)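 Seeds sown and sprayed preemergence with test compound in non-phytotoxic solvent containing surfactant; postemergence sprays, same formulation, went onto plants 2 to 18 cm tall (1- to 4-leaf stage). Plants held in greenhouse 12 to 14 days, then visually rated against untreated controls on a 0–100 scale (0 no effect, 100 complete control).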

wild oat (Avena fatua) = assay: Test C postemergence; conditions: for Oat, Wild plant response rating: scale 0 to 100 (0 no effect, 100 complete control)
Procedure, shortened: as §2

[4] = system: Italian ryegrass (Lolium multiflorum); assay: Test C postemergence; conditions: for Ryegrass, Italian plant response rating: scale 0 to 100 (0 no effect, 100 complete control)
Procedure, shortened: as §2

[5] = system: winter barley (Hordeum vulgare); assay: Test C postemergence; conditions: for Barley plant response rating: scale 0 to 100 (0 no effect, 100 complete control)
Procedure, shortened: as §2

[6] = system: downy brome (Bromus tectorum); assay: Test C postemergence; conditions: for Bromegrass, Downy plant response rating: scale 0 to 100 (0 no effect, 100 complete control)
Procedure, shortened: as §2

[7] = system: blackgrass (Alopecurus myosuroides); assay: Test C postemergence; conditions: for Blackgrass plant response rating: scale 0 to 100 (0 no effect, 100 complete control)
Procedure, shortened: as §2

[8] = system: green foxtail (Setaria viridis); assay: Test C postemergence; conditions: for Foxtail, Green plant response rating: scale 0 to 100 (0 no effect, 100 complete control)
Procedure, shortened: as §2

[9] = system: canarygrass (Phalaris minor); assay: Test C postemergence; conditions: for Canarygrass plant response rating: scale 0 to 100 (0 no effect, 100 complete control)
Procedure, shortened: as §2

[10] = system: wheat (Triticum aestivum); assay: Test C postemergence; conditions: for Wheat plant response rating: scale 0 to 100 (0 no effect, 100 complete control)
Procedure, shortened: as §2

## CCOC(=O)c1nc(-c2ccc(I)cc2)nc(N)c1Cl [Compound 133]
[1]; 64 g ai/ha
  Flatsedge, Rice plant response rating: 95
[1]; 125 g ai/ha
  Flatsedge, Rice plant response rating: 95
[1]; 250 g ai/ha
  Flatsedge, Rice plant response rating: 100
[1]; 16 g ai/ha
  Plant response rating, Flatsedge, Rice: 30
[1]; 32 g ai/ha
  Plant response rating, Flatsedge, Rice: 65
[2]; 64 g ai/ha
  Redstem plant response rating: 65
[2]; 125 g ai/ha
  Redstem plant response rating: 75
[2]; 250 g ai/ha
  Redstem plant response rating: 85
[2]; 16 g ai/ha
  Plant response rating, Redstem: 0
[2]; 32 g ai/ha
  Plant response rating, Redstem: 20

## CCOC(=O)C(Cl)(Cl)c1nc(C2CC2)nc(N)c1Br [Compound 34]
[3]; 31 g ai/ha
  Plant response rating (scale of 0 to 100), Windgrass: 40
[3]; 62 g ai/ha
  Windgrass plant response rating: 40
[3]; 125 g ai/ha
  Windgrass plant response rating: 50
[3]; 250 g ai/ha, scale 0 to 100
  Plant response rating, Windgrass: 60
Wild oat (Avena fatua); 31 g ai/ha
  Plant response rating (scale of 0 to 100), Oat, Wild: 20
Wild oat (Avena fatua); 62 g ai/ha
  Oat, Wild plant response rating: 40
Wild oat (Avena fatua); 125 g ai/ha
  Oat, Wild plant response rating: 45
Wild oat (Avena fatua); 250 g ai/ha, scale 0 to 100
  Plant response rating, Oat, Wild: 50
[4]; 31 g ai/ha
  Plant response rating (scale of 0 to 100), Ryegrass, Italian: 40
[4]; 62 g ai/ha
  Ryegrass, Italian plant response rating: 40
[4]; 125 g ai/ha
  Ryegrass, Italian plant response rating: 45
[4]; 250 g ai/ha, scale 0 to 100
  Plant response rating, Ryegrass, Italian: 60
[5]; 31 g ai/ha
  Plant response rating (scale of 0 to 100), Barley: 20
[5]; 62 g ai/ha
  Barley plant response rating: 20
[5]; 125 g ai/ha
  Barley plant response rating: 30
[5]; 250 g ai/ha, scale 0 to 100
  Plant response rating, Barley: 40
[6]; 31 g ai/ha
  Plant response rating (scale of 0 to 100), Bromegrass, Downy: 0
[6]; 62 g ai/ha
  Bromegrass, Downy plant response rating: 0
[6]; 125 g ai/ha
  Bromegrass, Downy plant response rating: 30
[6]; 250 g ai/ha, scale 0 to 100
  Plant response rating, Bromegrass, Downy: 35
[7]; 31 g ai/ha
  Plant response rating (scale of 0 to 100), Blackgrass: 0
[7]; 62 g ai/ha
  Blackgrass plant response rating: 35
[7]; 125 g ai/ha
  Blackgrass plant response rating: 35
[7]; 250 g ai/ha, scale 0 to 100
  Plant response rating, Blackgrass: 45
[8]; 31 g ai/ha
  Plant response rating (scale of 0 to 100), Foxtail, Green: 40
[8]; 62 g ai/ha
  Foxtail, Green plant response rating: 40
[8]; 125 g ai/ha
  Foxtail, Green plant response rating: 45
[8]; 250 g ai/ha, scale 0 to 100
  Plant response rating, Foxtail, Green: 45
[9]; 31 g ai/ha
  Plant response rating (scale of 0 to 100), Canarygrass: 20
[9]; 62 g ai/ha
  Canarygrass plant response rating: 30
[9]; 125 g ai/ha
  Canarygrass plant response rating: 35
[9]; 250 g ai/ha, scale 0 to 100
  Plant response rating, Canarygrass: 45
[10]; 31 g ai/ha
  Plant response rating (scale of 0 to 100), Wheat: 0
[10]; 62 g ai/ha
  Wheat plant response rating: 20
[10]; 125 g ai/ha
  Wheat plant response rating: 30
[10]; 250 g ai/ha, scale 0 to 100
  Plant response rating, Wheat: 35

## Nc1nc(-c2ccc(Cl)cc2)nc(C(=O)[O-])c1Cl.[Na+] [Compound 117]
[1]; 32 g ai/ha
  Flatsedge, Rice plant response rating: 100
[1]; 64 g ai/ha
  Flatsedge, Rice plant response rating: 100
[1]; 125 g ai/ha
  Flatsedge, Rice plant response rating: 100
[1]; 250 g ai/ha
  Flatsedge, Rice plant response rating: 100
[1]; 16 g ai/ha
  Plant response rating, Flatsedge, Rice: 100
[2]; 32 g ai/ha
  Redstem plant response rating: 0
[2]; 64 g ai/ha
  Redstem plant response rating: 0
[2]; 125 g ai/ha
  Redstem plant response rating: 0
[2]; 250 g ai/ha
  Redstem plant response rating: 30
[2]; 16 g ai/ha
  Plant response rating, Redstem: 0

## Nc1nc(-c2ccc(Br)cc2)nc(C(=O)O)c1Br [Compound 136]
[3]; 16 g ai/ha
  Plant response rating (scale of 0 to 100), Windgrass: 45
[3]; 31 g ai/ha
  Plant response rating (scale of 0 to 100), Windgrass: 60
[3]; 62 g ai/ha
  Plant response rating (scale of 0 to 100), Windgrass: 65
[3]; 125 g ai/ha
  Windgrass plant response rating: 65
Wild oat (Avena fatua); 16 g ai/ha
  Plant response rating (scale of 0 to 100), Oat, Wild: 40
Wild oat (Avena fatua); 31 g ai/ha
  Plant response rating (scale of 0 to 100), Oat, Wild: 45
Wild oat (Avena fatua); 62 g ai/ha
  Plant response rating (scale of 0 to 100), Oat, Wild: 55
Wild oat (Avena fatua); 125 g ai/ha
  Oat, Wild plant response rating: 60
[4]; 16 g ai/ha
  Plant response rating (scale of 0 to 100), Ryegrass, Italian: 45
[4]; 31 g ai/ha
  Plant response rating (scale of 0 to 100), Ryegrass, Italian: 50
[4]; 62 g ai/ha
  Plant response rating (scale of 0 to 100), Ryegrass, Italian: 60
[4]; 125 g ai/ha
  Ryegrass, Italian plant response rating: 65
[5]; 16 g ai/ha
  Plant response rating (scale of 0 to 100), Barley: 40
[5]; 31 g ai/ha
  Plant response rating (scale of 0 to 100), Barley: 50
[5]; 62 g ai/ha
  Barley plant response rating: 50
[5]; 125 g ai/ha
  Barley plant response rating: 55
[6]; 16 g ai/ha
  Plant response rating (scale of 0 to 100), Bromegrass, Downy: 30
[6]; 62 g ai/ha
  Plant response rating (scale of 0 to 100), Bromegrass, Downy: 45
[6]; 125 g ai/ha
  Bromegrass, Downy plant response rating: 55
[7]; 16 g ai/ha
  Plant response rating (scale of 0 to 100), Blackgrass: 40
[7]; 31 g ai/ha
  Plant response rating (scale of 0 to 100), Blackgrass: 55
[7]; 62 g ai/ha
  Plant response rating (scale of 0 to 100), Blackgrass: 65
[7]; 125 g ai/ha
  Blackgrass plant response rating: 65
[8]; 16 g ai/ha
  Plant response rating (scale of 0 to 100), Foxtail, Green: 45
[8]; 31 g ai/ha
  Plant response rating (scale of 0 to 100), Foxtail, Green: 65
[8]; 62 g ai/ha
  Plant response rating (scale of 0 to 100), Foxtail, Green: 70
[8]; 125 g ai/ha
  Foxtail, Green plant response rating: 70
[9]; 16 g ai/ha
  Plant response rating (scale of 0 to 100), Canarygrass: 40
[9]; 31 g ai/ha
  Plant response rating (scale of 0 to 100), Canarygrass: 45
[9]; 62 g ai/ha
  Plant response rating (scale of 0 to 100), Canarygrass: 55
[9]; 125 g ai/ha
  Canarygrass plant response rating: 65
[10]; 16 g ai/ha
  Plant response rating (scale of 0 to 100), Wheat: 20
[10]; 31 g ai/ha
  Plant response rating (scale of 0 to 100), Wheat: 40
[10]; 62 g ai/ha
  Plant response rating (scale of 0 to 100), Wheat: 45
[10]; 125 g ai/ha
  Wheat plant response rating: 55

## COC(=O)c1nc(-c2ccc(I)cc2)nc(N)c1Br [Compound 128]
[1]; 32 g ai/ha
  Flatsedge, Rice plant response rating: 0
[1]; 64 g ai/ha
  Flatsedge, Rice plant response rating: 0
[1]; 125 g ai/ha
  Flatsedge, Rice plant response rating: 60
[1]; 250 g ai/ha
  Flatsedge, Rice plant response rating: 80
[1]; 16 g ai/ha
  Plant response rating, Flatsedge, Rice: 0
[2]; 32 g ai/ha
  Redstem plant response rating: 75
[2]; 64 g ai/ha
  Redstem plant response rating: 80
[2]; 125 g ai/ha
  Redstem plant response rating: 90
[2]; 250 g ai/ha
  Redstem plant response rating: 90
[2]; 16 g ai/ha
  Plant response rating, Redstem: 0

## Cc1ccc(-c2nc(N)c(Cl)c(C(=O)O)n2)cc1 [Compound 91]
[2]; 32 g ai/ha
  Redstem plant response rating: 0
[2]; 64 g ai/ha
  Redstem plant response rating: 0
[2]; 125 g ai/ha
  Redstem plant response rating: 30
[2]; 250 g ai/ha
  Redstem plant response rating: 50
[2]; 16 g ai/ha
  Plant response rating, Redstem: 0

## Nc1nc(-c2ccc(Cl)cc2)nc(C(=O)O)c1Br [Compound 88]
[1]; 32 g ai/ha
  Flatsedge, Rice plant response rating: 85
[1]; 64 g ai/ha
  Flatsedge, Rice plant response rating: 100
[1]; 125 g ai/ha
  Flatsedge, Rice plant response rating: 100
[1]; 250 g ai/ha
  Flatsedge, Rice plant response rating: 100
[1]; 16 g ai/ha
  Plant response rating, Flatsedge, Rice: 50
[2]; 32 g ai/ha
  Redstem plant response rating: 0
[2]; 64 g ai/ha
  Redstem plant response rating: 0
[2]; 125 g ai/ha
  Redstem plant response rating: 0
[2]; 250 g ai/ha
  Redstem plant response rating: 65
[2]; 16 g ai/ha
  Plant response rating, Redstem: 0

## CCOC(=O)c1nc(-c2ccc3c(c2)OCO3)nc(N)c1Cl [Compound 74]
[1]; 32 g ai/ha
  Flatsedge, Rice plant response rating: 0
[1]; 64 g ai/ha
  Flatsedge, Rice plant response rating: 0
[1]; 125 g ai/ha
  Flatsedge, Rice plant response rating: 90
[1]; 250 g ai/ha
  Flatsedge, Rice plant response rating: 95
[1]; 16 g ai/ha
  Plant response rating, Flatsedge, Rice: 0
[2]; 32 g ai/ha
  Redstem plant response rating: 0
[2]; 64 g ai/ha
  Redstem plant response rating: 0
[2]; 125 g ai/ha
  Redstem plant response rating: 20
[2]; 250 g ai/ha
  Redstem plant response rating: 25
[2]; 16 g ai/ha
  Plant response rating, Redstem: 0

## COC(=O)c1nc(-c2ccc(C(F)(F)F)cc2)nc(N)c1Cl [Compound 44]
[2]; 32 g ai/ha
  Redstem plant response rating: 0
[2]; 64 g ai/ha
  Redstem plant response rating: 10
[2]; 125 g ai/ha
  Redstem plant response rating: 20
[2]; 250 g ai/ha
  Redstem plant response rating: 50
[2]; 500 g ai/ha
  Redstem plant response rating: 75
